Experimental findings from patent EP0655506B1 (priority 1994, dated 1995) are described below.

What all share (experiment): Gel electrophoresis-based rate of incorporation of dideoxynucleotides relative to deoxynucleotides, varying the ratio of dNTPs to ddNTPs (Example 7)
One test deals with T1, T7 DNA polymerase Y526F (Escherichia phage T7, UniProt P00581, DEL118-145/Y526F).
T1 construct: made in house; host or cells: strain that produces E. coli thioredoxin (lac promoter)
Format: biochemical, bacteriophage T7. To be noted: 10 µM 4 dNTPs, ddNTP 100 to 2,000 µM; ddNTP:dNTP ratio giving fragments comparable to T7 DNA polymerase, multiplied by its Example 6 ratio. Here is the method:
(§1) This example is similar to that described in Example 6. While it is the preferred test for DNA polymerases that discriminate strongly against the incorporation of dideoxynucleotides (e.g. T7 DNA polymerase Y526F, E. coli DNA polymerase I and Taq DNA polymerase), it also works well with DNA polymerases that efficiently incorporate ddNMPs (e.g. T7 DNA polymerase, E. coli DNA polymerase I mutant F762Y and Taq DNA polymerase mutant F667Y).
(§2) The average length of a series of fragments is determined in one of two ways. […] The position of the front marking the appearance of visible radioactive bands is usually relatively sharp and readily observed by eye. However, it is also possible to determine such positions more precisely using the Phosphoimager to locate the position in each lane where a certain threshold of radioactivity per unit area occurs, starting at the top of the gel and moving down the gel.
(§3) Some DNA polymerases discriminate very strongly against the incorporation of dideoxynucleotides, in which case it is difficult to add sufficient ddNTPs to the reaction to clearly detect the position of the largest dideoxy-terminated fragments on a denaturing polyacrylamide gel. For such DNA polymerases, one can use an alkaline agarose gel electrophoresis to compare the lengths of the dideoxy-terminated fragments in the different series.
(§4) These tests were carried out using the six DNA polymerases described in Example 6. The reaction conditions were identical to that described in Example 6 except for the concentrations of dNTPs and ddNTPs. All reaction mixtures contained 10 µM 4 dNTPs. Each of the four ddNTP concentrations were varied by two-fold increments in the following ranges for the six DNA polymerases as follows: T7 DNA polymerase, E. coli DNA polymerase I F762Y, and Taq DNA polymerase F667Y , 0.02 µM to 1 µM, and T7 DNA polymerase Y526F, E. coli DNA polymerase I and Taq DNA polymerase, 100 to 2,000 µM. The reactions were carried out and the samples were analyzed by denaturing polyacrylamide gel electrophoresis as described in Example 6. Drying of the gel, autoradiography, and Phosphoimager analysis were as described in Example 6. The Table below summarizes the results from this experiment; the values shown for T7 DNA polymerase, E. coli DNA polymerase I F762Y, and Taq DNA polymerase F667Y are the absolute ratios obtained in Example 6 by statistical analysis of the rate of exponential decay in intensity of dideoxy-terminated fragments obtained using a 1:1 ratio of dNTPs to ddNTPs. […] This factor was multiplied by the absolute ratios obtained for T7 DNA polymerase, E. coli DNA polymerase I F762Y, and Taq DNA polymerase F667Y in Example 6 in order to obtain the values shown below for T7 DNA polymerase Y526F, E. coli DNA polymerase I and Taq DNA polymerase, respectively.

The target of test [1] is T2, E. coli DNA polymerase I (large fragment, Klenow fragment), wild type (Escherichia coli, UniProt P00582).
T2 construct: The large fragment of E. coli DNA polymerase I, commonly called the Klenow fragment; made in house
T2 sequence (P00582 324-928): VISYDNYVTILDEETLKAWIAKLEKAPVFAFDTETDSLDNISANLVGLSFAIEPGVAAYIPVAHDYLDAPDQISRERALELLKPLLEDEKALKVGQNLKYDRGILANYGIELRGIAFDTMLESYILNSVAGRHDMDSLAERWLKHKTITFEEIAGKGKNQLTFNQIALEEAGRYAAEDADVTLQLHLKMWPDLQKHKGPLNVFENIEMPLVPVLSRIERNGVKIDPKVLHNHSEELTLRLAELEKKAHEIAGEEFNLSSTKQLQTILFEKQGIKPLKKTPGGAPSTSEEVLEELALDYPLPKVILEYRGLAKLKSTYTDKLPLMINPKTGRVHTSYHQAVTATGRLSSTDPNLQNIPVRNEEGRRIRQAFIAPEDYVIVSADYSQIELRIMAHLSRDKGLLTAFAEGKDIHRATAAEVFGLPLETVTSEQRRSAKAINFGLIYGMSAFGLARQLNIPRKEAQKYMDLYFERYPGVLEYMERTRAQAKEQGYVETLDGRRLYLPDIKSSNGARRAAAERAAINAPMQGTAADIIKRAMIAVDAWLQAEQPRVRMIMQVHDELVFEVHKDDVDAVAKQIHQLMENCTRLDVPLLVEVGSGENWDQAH
The class given is biochemical. The following applies: 10 µM 4 dNTPs, ddNTP 100 to 2,000 µM; ddNTP:dNTP ratio giving fragments comparable to E. coli DNA polymerase I F762Y, multiplied by its Example 6 ratio. How it is done: as §1, §2, §3, §4

For test [2], the target named is T3, Taq DNA polymerase (unmodified DNA polymerase from Thermus aquaticus) (Thermus aquaticus, UniProt P19821).
T3 construct: to the gene that produces the full length Taq DNA polymerase; made in house
T3 sequence (P19821 whole entry): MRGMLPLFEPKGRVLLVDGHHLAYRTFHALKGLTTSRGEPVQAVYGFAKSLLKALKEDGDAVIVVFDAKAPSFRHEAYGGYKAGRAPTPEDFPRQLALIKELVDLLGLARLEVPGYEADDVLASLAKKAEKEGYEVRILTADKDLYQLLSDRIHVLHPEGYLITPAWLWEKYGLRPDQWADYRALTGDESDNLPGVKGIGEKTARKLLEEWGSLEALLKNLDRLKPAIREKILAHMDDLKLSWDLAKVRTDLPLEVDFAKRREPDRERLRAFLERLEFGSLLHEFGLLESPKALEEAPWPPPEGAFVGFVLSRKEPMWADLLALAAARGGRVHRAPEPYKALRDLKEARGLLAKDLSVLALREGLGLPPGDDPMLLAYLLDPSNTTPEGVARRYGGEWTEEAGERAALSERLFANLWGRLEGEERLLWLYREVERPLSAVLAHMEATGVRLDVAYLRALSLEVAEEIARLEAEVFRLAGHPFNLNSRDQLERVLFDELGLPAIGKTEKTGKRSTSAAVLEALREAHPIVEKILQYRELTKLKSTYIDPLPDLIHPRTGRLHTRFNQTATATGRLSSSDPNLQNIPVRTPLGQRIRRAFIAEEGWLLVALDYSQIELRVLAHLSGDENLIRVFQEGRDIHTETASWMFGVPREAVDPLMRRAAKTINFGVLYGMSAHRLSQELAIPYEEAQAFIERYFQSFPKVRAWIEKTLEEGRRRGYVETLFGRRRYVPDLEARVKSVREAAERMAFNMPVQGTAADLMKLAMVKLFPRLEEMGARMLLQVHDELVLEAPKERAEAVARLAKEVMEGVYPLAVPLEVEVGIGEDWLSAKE
Format: biochemical. To be noted: 10 µM 4 dNTPs, ddNTP 100 to 2,000 µM; ddNTP:dNTP ratio giving fragments comparable to Taq DNA polymerase F667Y, multiplied by its Example 6 ratio. How it is done:
as §1, §2, §3, §4

T1 sequence (P00581 other isoform, or with tags, fused parts or gaps DEL118-145/Y526F): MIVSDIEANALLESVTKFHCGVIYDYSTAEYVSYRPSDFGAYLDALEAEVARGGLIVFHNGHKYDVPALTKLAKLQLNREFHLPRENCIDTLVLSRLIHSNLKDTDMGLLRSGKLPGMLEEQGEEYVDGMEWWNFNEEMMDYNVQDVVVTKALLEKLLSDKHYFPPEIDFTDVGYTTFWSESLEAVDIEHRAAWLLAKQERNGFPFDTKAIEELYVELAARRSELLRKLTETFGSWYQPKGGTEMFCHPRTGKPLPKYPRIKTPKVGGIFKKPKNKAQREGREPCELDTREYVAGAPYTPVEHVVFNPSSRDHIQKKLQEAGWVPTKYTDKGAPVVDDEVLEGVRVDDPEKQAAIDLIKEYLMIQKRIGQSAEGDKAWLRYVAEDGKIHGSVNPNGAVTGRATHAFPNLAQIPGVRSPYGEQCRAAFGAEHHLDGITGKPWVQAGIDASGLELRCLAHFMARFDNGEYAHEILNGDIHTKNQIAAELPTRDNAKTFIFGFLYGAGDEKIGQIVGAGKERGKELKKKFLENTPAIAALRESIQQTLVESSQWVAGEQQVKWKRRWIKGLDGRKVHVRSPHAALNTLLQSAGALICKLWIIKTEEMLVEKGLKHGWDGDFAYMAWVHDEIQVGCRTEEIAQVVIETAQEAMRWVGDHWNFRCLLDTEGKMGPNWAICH
T1 sequence (P0AA25 2-109, stated change not applied, further chain): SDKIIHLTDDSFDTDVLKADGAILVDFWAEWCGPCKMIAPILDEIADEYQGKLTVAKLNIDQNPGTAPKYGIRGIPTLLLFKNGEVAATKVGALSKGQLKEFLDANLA

`Nc1ccn([C@H]2CC[C@@H](COP(=O)(O)OP(=O)(O)OP(=O)(O)O)O2)c(=O)n1` [ddCTP]: the “Incorporation Rate Ratios (dN/ddN)” value on T7 DNA polymerase Y526F is listed as 11,000; in test [1], 250; in test [2], 2,600.

For the compound `Nc1nc2c(ncn2[C@H]2CC[C@@H](COP(=O)(O)OP(=O)(O)OP(=O)(O)O)O2)c(=O)[nH]1` [ddGTP], the results for the “Incorporation Rate Ratios (dN/ddN)” value (on T7 DNA polymerase Y526F; in test [1]; in test [2]) were 6,400, 140 and 1,400, respectively.

Turning to `Cc1cn([C@H]2CC[C@@H](COP(=O)(O)OP(=O)(O)OP(=O)(O)O)O2)c(=O)[nH]c1=O` [ddTTP], the results for the “Incorporation Rate Ratios (dN/ddN)” value (at T7 DNA polymerase Y526F; in test [1]; in test [2]) were 8,400, 1,100 and 4,500, respectively.

As to `Nc1ncnc2c1ncn2[C@H]1CC[C@@H](COP(=O)(O)OP(=O)(O)OP(=O)(O)O)O1` [ddATP], the entries for the “Incorporation Rate Ratios (dN/ddN)” value (at T7 DNA polymerase Y526F; in test [1]; in test [2]) were 7,300, 720 and 4,700, respectively.
